In patent US8609608B2, “Antimicrobial peptides” (C3 Jian, Inc., priority 2007, dated 2013):
Where no end group is shown, it is not given here.

test system: S. mutans UA159; test: Killing kinetics (time-kill assay); type: cell-based, Streptococcus mutans; details: peptide 25 μg/ml, UA159
Protocol: The determination of killing kinetics for fusion and parental peptides was conducted essentially as described previously (Eckert et al. (2006) Antimicrob. Agents Chemother. 50: 1480-1488). Briefly, medium-diluted overnight UA159 cultures (0.5×10^6 to 1×10^6 CFU/ml) were challenged with peptide at a concentration of 25 μg/ml, and at the indicated time intervals (“0 min” indicates untreated samples), a 10-μL aliquot was removed and the surviving CFU were rescued by dilution (1:50) into growth medium and then spread on TH agar plates for quantitation. […] Kinetics were determined by recording the average number of surviving CFU/ml versus incubation time in the presence of peptide (all assays were independently repeated three to five times). For Table 8, time to bactericidal killing (TC) values were defined as the time required for the level of surviving CFU/ml from peptide-treated cultures to fall 3 log10 below the levels of recovered S. mutans CFU/ml from untreated samples.

Substance | TC, time required to kill 3 log10 of recoverable CFU/ml [min]
RRRWWWFPSGSPRRRWWWF-NH2 [FRW-4, RRRWWWF-PSGSP-RRRWWWF*] | 420
RWRWRWFPSGSPRWRWRWF-NH2 [FRW-10, RWRWRWF-PSGSP-RWRWRWF*] | 270

test system: S. gordonii Challis DL1; test: not given; type: cell-based, Streptococcus gordonii; details: not given
Protocol: (§1) S. mutans clinical isolates UA140 (32), UA159 (1), T8 (33), ATCC 25175, GS5 (Kuramitsu and Ingersoll (1977) Infect Immun., 17: 330-337), and all gram-positive strains listed below (see Table 9) were grown under anaerobic conditions in brain heart infusion or Todd-Hewitt (TH) broth (Difco) overnight at 37° C. prior to use (Eckert et al. (2006) Antimicrob. Agents Chemother. 50: 3651-3657). Veillonella atypica PK1910 was grown in Veillonella medium (Egland et al. (2004) Proc. Natl. Acad. Sci., USA, 101: 16917-16922). All strains were grown in an anaerobic atmosphere of 80% N2, 10% CO2, and 10% H2.
(§2) Antibacterial growth inhibition assays were performed using sterile 96-well plates in a final volume of 100 μl, TH or Veillonella medium as described previously (Qi et al. (2005) FEMS Microbial Lett. 251: 321-326). Briefly, bacterial cells were grown overnight to an optical density at 600 nm of 0.75 to 0.8 (corresponding to 1×10^8 CFU/ml) and then diluted to 1×10^5 CFU/ml in broth and aliquoted onto plates. An appropriate volume of peptide stock solution (5 to 20 mg/ml, in water or methanol, depending on solubility) was then added to the first column of the plate to give 500 μg/ml or 512 μg/ml, followed by serial 1:2 dilutions across the plate to give wells containing peptides ranging from 500 to 1.95 μg/ml or 512 to 2 μg/ml. Methanol alone was also added to control for the effects of the solvent. The plates were then incubated at 37° C. under anaerobic conditions for 16 to 20 h without shaking, and the MIC was determined as the concentration of peptide present in the last clear well after visual inspection. Up to 5% (vol/vol) methanol was found not to be antimicrobial (data not shown). MICs were determined in triplicate for all bacteria.

Substance | MIC S. gordonii Challis DL1 [µg/mL]
RWRWRWFGGGFKKFWKWFRRF-NH2 [FBRW-22, RWRWRWF-GGG-FKKFWKWFRRF*] | 16
LKRFLKWFKRF-NH2 [Peptide B-34, LKRFLKWFKRF*] | 32
IKQLLHFFQRFGGGRWRWRWF-NH2 [FBRW-15, IKQLLHFFQRF-GGG-RWRWRWF*] | 32
RWRWRWFGGGLKRFLKWFKRF-NH2 [FBRW-24, RWRWRWF-GGG-LKRFLKWFKRF*] | 32
FKKFWKWFRRF-NH2 [Peptide B-33, FKKFWKWFRRF*] | 32
LKRFLKWFKRFGGGRWRWRWF-NH2 [FBRW-16, LKRFLKWFKRF-GGG-RWRWRWF*] | 64
RWRRLLKKLHHLLH-NH2 [α-11, RWRRLLKKLHHLLH*] | 16
IKQLLHFFQRF-NH2 [Peptide B-38, IKQLLHFFQRF*] | 32
FKKFWKWFRRFGGGRWRWRWF-NH2 [FBRW-14, FKKFWKWFRRF-GGG-RWRWRWF*] | 32
RWRRLLKKLHHLLHGGGFKKFWKWFRRF-NH2 [FBα-20, RWRRLLKKLHHLLH-GGG-FKKFWKWFRRF*] | 16
RWRWRWF-NH2 [Peptide 2C-4, RWRWRWF*] | 32

test system: clinical isolates of S. mutans; test: not given; type: cell-based, Streptococcus mutans; details: not given
Protocol: as §1, §2

Substance | activity against S. mutans by MIC, in words
IKQLLHFFQRF-NH2 [Peptide B-38, IKQLLHFFQRF*] | active but to a lesser degree than B-33 or B-34

same assay, conditions: clinical isolates of

Substance | MIC (fusion library peptides) [µg/mL] | MIC [µg/mL]
RWRWRWFGGGFKKFWKWFRRF-NH2 [FBRW-22, RWRWRWF-GGG-FKKFWKWFRRF*] | 4 to 8 | 
LKRFLKWFKRF-NH2 [Peptide B-34, LKRFLKWFKRF*] |  | 8 to 24
IKQLLHFFQRFGGGRWRWRWF-NH2 [FBRW-15, IKQLLHFFQRF-GGG-RWRWRWF*] | 4 to 16 | 
RWRWRWFGGGLKRFLKWFKRF-NH2 [FBRW-24, RWRWRWF-GGG-LKRFLKWFKRF*] | 8 | 
FKKFWKWFRRF-NH2 [Peptide B-33, FKKFWKWFRRF*] |  | 8 to 24
LKRFLKWFKRFGGGRWRWRWF-NH2 [FBRW-16, LKRFLKWFKRF-GGG-RWRWRWF*] | 4 to 16 | 
RWRRLLKKLHHLLH-NH2 [α-11, RWRRLLKKLHHLLH*] |  | 8
IKQLLHFFQRF-NH2 [Peptide B-38, IKQLLHFFQRF*] |  | 24
FKKFWKWFRRFGGGRWRWRWF-NH2 [FBRW-14, FKKFWKWFRRF-GGG-RWRWRWF*] | 4 to 16 | 
RRRWWWFPSGSPRRRWWWF-NH2 [FRW-4, RRRWWWF-PSGSP-RRRWWWF*] | 32 | 
RWRRLLKKLHHLLHGGGFKKFWKWFRRF-NH2 [FBα-20, RWRRLLKKLHHLLH-GGG-FKKFWKWFRRF*] | 4 to 8 | 
RWRWRWF-NH2 [Peptide 2C-4, RWRWRWF*] |  | 4 to 8
RWRWRWFPSGSPRWRWRWF-NH2 [FRW-10, RWRWRWF-PSGSP-RWRWRWF*] | 32 | 

test system: V. atypica PK1910; test: not given; type: cell-based, Veillonella atypica; details: not given
Protocol: as §1, §2

Substance | MIC V. atypica PK1910 [µg/mL]
RWRWRWFGGGFKKFWKWFRRF-NH2 [FBRW-22, RWRWRWF-GGG-FKKFWKWFRRF*] | 8
LKRFLKWFKRF-NH2 [Peptide B-34, LKRFLKWFKRF*] | 32
IKQLLHFFQRFGGGRWRWRWF-NH2 [FBRW-15, IKQLLHFFQRF-GGG-RWRWRWF*] | 8
RWRWRWFGGGLKRFLKWFKRF-NH2 [FBRW-24, RWRWRWF-GGG-LKRFLKWFKRF*] | 16
FKKFWKWFRRF-NH2 [Peptide B-33, FKKFWKWFRRF*] | 16
LKRFLKWFKRFGGGRWRWRWF-NH2 [FBRW-16, LKRFLKWFKRF-GGG-RWRWRWF*] | 8
RWRRLLKKLHHLLH-NH2 [α-11, RWRRLLKKLHHLLH*] | 4
IKQLLHFFQRF-NH2 [Peptide B-38, IKQLLHFFQRF*] | 64
FKKFWKWFRRFGGGRWRWRWF-NH2 [FBRW-14, FKKFWKWFRRF-GGG-RWRWRWF*] | 8
RWRRLLKKLHHLLHGGGFKKFWKWFRRF-NH2 [FBα-20, RWRRLLKKLHHLLH-GGG-FKKFWKWFRRF*] | 8
RWRWRWF-NH2 [Peptide 2C-4, RWRWRWF*] | 64

test system: L. casei ATCC 4646; test: not given; type: cell-based, Lactobacillus casei; details: not given
Protocol: as §1, §2

Substance | MIC L. casei ATCC 4646 [µg/mL]
RWRWRWFGGGFKKFWKWFRRF-NH2 [FBRW-22, RWRWRWF-GGG-FKKFWKWFRRF*] | 8
LKRFLKWFKRF-NH2 [Peptide B-34, LKRFLKWFKRF*] | 16
IKQLLHFFQRFGGGRWRWRWF-NH2 [FBRW-15, IKQLLHFFQRF-GGG-RWRWRWF*] | 16
RWRWRWFGGGLKRFLKWFKRF-NH2 [FBRW-24, RWRWRWF-GGG-LKRFLKWFKRF*] | 8
FKKFWKWFRRF-NH2 [Peptide B-33, FKKFWKWFRRF*] | 32
LKRFLKWFKRFGGGRWRWRWF-NH2 [FBRW-16, LKRFLKWFKRF-GGG-RWRWRWF*] | 16
RWRRLLKKLHHLLH-NH2 [α-11, RWRRLLKKLHHLLH*] | 16
IKQLLHFFQRF-NH2 [Peptide B-38, IKQLLHFFQRF*] | 32
FKKFWKWFRRFGGGRWRWRWF-NH2 [FBRW-14, FKKFWKWFRRF-GGG-RWRWRWF*] | 8
RWRRLLKKLHHLLHGGGFKKFWKWFRRF-NH2 [FBα-20, RWRRLLKKLHHLLH-GGG-FKKFWKWFRRF*] | 8
RWRWRWF-NH2 [Peptide 2C-4, RWRWRWF*] | 32

test system: S. mitis ATCC 903; test: not given; type: cell-based, Streptococcus mitis; details: not given
Protocol: as §1, §2

Substance | MIC S. mitis ATCC 903 [µg/mL]
RWRWRWFGGGFKKFWKWFRRF-NH2 [FBRW-22, RWRWRWF-GGG-FKKFWKWFRRF*] | 64
LKRFLKWFKRF-NH2 [Peptide B-34, LKRFLKWFKRF*] | 64
IKQLLHFFQRFGGGRWRWRWF-NH2 [FBRW-15, IKQLLHFFQRF-GGG-RWRWRWF*] | 64
RWRWRWFGGGLKRFLKWFKRF-NH2 [FBRW-24, RWRWRWF-GGG-LKRFLKWFKRF*] | 64
FKKFWKWFRRF-NH2 [Peptide B-33, FKKFWKWFRRF*] | 32
LKRFLKWFKRFGGGRWRWRWF-NH2 [FBRW-16, LKRFLKWFKRF-GGG-RWRWRWF*] | 64
RWRRLLKKLHHLLH-NH2 [α-11, RWRRLLKKLHHLLH*] | 32
IKQLLHFFQRF-NH2 [Peptide B-38, IKQLLHFFQRF*] | 64
FKKFWKWFRRFGGGRWRWRWF-NH2 [FBRW-14, FKKFWKWFRRF-GGG-RWRWRWF*] | 64
RWRRLLKKLHHLLHGGGFKKFWKWFRRF-NH2 [FBα-20, RWRRLLKKLHHLLH-GGG-FKKFWKWFRRF*] | 32
RWRWRWF-NH2 [Peptide 2C-4, RWRWRWF*] | 32

test system: S. sanguinis NY101; test: not given; type: cell-based, Streptococcus sanguinis; details: not given
Protocol: as §1, §2

Substance | MIC S. sanguinis NY101 [µg/mL]
RWRWRWFGGGFKKFWKWFRRF-NH2 [FBRW-22, RWRWRWF-GGG-FKKFWKWFRRF*] | 8
LKRFLKWFKRF-NH2 [Peptide B-34, LKRFLKWFKRF*] | 16
IKQLLHFFQRFGGGRWRWRWF-NH2 [FBRW-15, IKQLLHFFQRF-GGG-RWRWRWF*] | 16
RWRWRWFGGGLKRFLKWFKRF-NH2 [FBRW-24, RWRWRWF-GGG-LKRFLKWFKRF*] | 16
FKKFWKWFRRF-NH2 [Peptide B-33, FKKFWKWFRRF*] | 32
LKRFLKWFKRFGGGRWRWRWF-NH2 [FBRW-16, LKRFLKWFKRF-GGG-RWRWRWF*] | 16
RWRRLLKKLHHLLH-NH2 [α-11, RWRRLLKKLHHLLH*] | 16
IKQLLHFFQRF-NH2 [Peptide B-38, IKQLLHFFQRF*] | 64
FKKFWKWFRRFGGGRWRWRWF-NH2 [FBRW-14, FKKFWKWFRRF-GGG-RWRWRWF*] | 16
RWRRLLKKLHHLLHGGGFKKFWKWFRRF-NH2 [FBα-20, RWRRLLKKLHHLLH-GGG-FKKFWKWFRRF*] | 16
RWRWRWF-NH2 [Peptide 2C-4, RWRWRWF*] | 32
